Measured values reported in patent US20240384268A1, “Oligonucleotides” (Hudson Institute of Medical Research, priority 2021, published 2024).

Target: T1, TLR8 (Homo sapiens, UniProt Q9NR97)
T1 sequence (Q9NR97 27-1041): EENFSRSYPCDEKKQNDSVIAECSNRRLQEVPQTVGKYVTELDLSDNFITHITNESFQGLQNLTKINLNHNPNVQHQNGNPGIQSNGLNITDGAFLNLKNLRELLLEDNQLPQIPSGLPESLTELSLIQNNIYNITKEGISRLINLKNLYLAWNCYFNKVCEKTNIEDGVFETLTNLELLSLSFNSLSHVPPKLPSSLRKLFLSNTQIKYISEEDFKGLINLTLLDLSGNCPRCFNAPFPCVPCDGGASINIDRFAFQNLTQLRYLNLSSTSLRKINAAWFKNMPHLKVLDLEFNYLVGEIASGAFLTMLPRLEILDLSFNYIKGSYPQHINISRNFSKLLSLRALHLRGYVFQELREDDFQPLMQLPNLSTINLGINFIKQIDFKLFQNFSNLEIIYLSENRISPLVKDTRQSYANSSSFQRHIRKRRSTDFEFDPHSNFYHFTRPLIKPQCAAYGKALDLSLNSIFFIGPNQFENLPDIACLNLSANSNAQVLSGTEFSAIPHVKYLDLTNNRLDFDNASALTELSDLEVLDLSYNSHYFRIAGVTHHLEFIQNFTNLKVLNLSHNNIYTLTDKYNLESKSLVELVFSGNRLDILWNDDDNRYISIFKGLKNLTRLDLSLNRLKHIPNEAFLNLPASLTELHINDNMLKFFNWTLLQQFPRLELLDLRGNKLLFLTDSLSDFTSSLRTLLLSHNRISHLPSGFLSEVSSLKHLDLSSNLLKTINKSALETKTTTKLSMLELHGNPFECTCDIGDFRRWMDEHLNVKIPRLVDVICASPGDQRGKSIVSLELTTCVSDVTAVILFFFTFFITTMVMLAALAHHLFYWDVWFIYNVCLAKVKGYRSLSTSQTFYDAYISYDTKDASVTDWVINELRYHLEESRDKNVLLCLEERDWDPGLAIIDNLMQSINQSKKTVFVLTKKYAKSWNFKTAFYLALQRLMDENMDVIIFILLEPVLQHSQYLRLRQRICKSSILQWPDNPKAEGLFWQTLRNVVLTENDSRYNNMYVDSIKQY
Experiment: HEK-TLR8 NF-κB-luciferase reporter, R848 or Motolimod stimulation (potentiation or inhibition)
Format: cell-based
Set-up: expressed in transfected cells; host or cells: 293XLhTLR8 (HEK293)
Settings: averaged NF-κB-Luciferase relative to R848 condition (fold increase); for TLR8 100 nM: MOE-modified ASO at 100 nM; for TLR8 500 nM: MOE-modified ASO at 500 nM

With “AACACTTCGTGGGGTCCTTT (antisense; 2'-MOE modified, pattern not given here) [HPRT-664 MOE]” the “TLR8 100 nM” value was 2.725 and the “TLR8 500 nM” value was 3.167.

“AATCCGCCCAAAGGGAACTG (antisense; 2'-MOE modified, pattern not given here) [HPRT-1027 MOE]” was tested, and the “TLR8 100 nM” value was 2.685 and the “TLR8 500 nM” value was 4.659.

With “ACAACCCCTTTCACCATCCC (antisense; 2'-MOE modified, pattern not given here) [MB21D1-689 MOE]” the “TLR8 100 nM” value was 8.841 and the “TLR8 500 nM” value was 14.808.

In the case of “ACAGTGTTGAGATACTCGGG (antisense; 2'-MOE modified, pattern not given here) [EGFR-3652 MOE]”, the “TLR8 100 nM” value is reported as 5.681 and the “TLR8 500 nM” value is reported as 8.261.

For “ACCCACTTGGCAGACCATCA (antisense; 2'-MOE modified, pattern not given here) [CTNN2B-1575 MOE]”, the “TLR8 100 nM” value was 2.822 and the “TLR8 500 nM” value was 3.985.

“ACTGACTGTCTTGAGGGTTC (antisense; 2'-MOE modified, pattern not given here) [MB21D1-1483 MOE]” was tested, and the “TLR8 100 nM” value was 2.454 and the “TLR8 500 nM” value was 3.185.

With “AGATCTGGCAGCCCATCAAC (antisense; 2'-MOE modified, pattern not given here) [CTNN2B-2516 MOE]” the “TLR8 100 nM” value was 3.069 and the “TLR8 500 nM” value was 4.465.

“AGGTCTTGGCTTCGTGGAGC (antisense; 2'-MOE modified, pattern not given here) [MB21D1-522 MOE]” was tested, and the “TLR8 100 nM” value was 3.657 and the “TLR8 500 nM” value was 5.064.

With “ATCCAACACTTCGTGGGGTC (antisense; 2'-MOE modified, pattern not given here) [HPRT-668 MOE]” the “TLR8 100 nM” value was 1.437 and the “TLR8 500 nM” value was 1.519.

“ATGTCCCCTGTTGACTGGTC (antisense; 2'-MOE modified, pattern not given here) [HPRT-489 MOE]” was tested, and the “TLR8 100 nM” value was 1.752 and the “TLR8 500 nM” value was 2.118.

In the case of “ATGTCCCGCCACTGGATGCT (antisense; 2'-MOE modified, pattern not given here) [EGFR-727 MOE]”, the “TLR8 100 nM” value is reported as 2.029 and the “TLR8 500 nM” value is reported as 1.708.

In the case of “ATGTGATGGCCTCCCATCTC (antisense; 2'-MOE modified, pattern not given here) [HPRT-333 MOE]”, the “TLR8 100 nM” value is reported as 0.939 and the “TLR8 500 nM” value is reported as 1.429.

In the case of “CAACACTTCGTGGGGTCCTT (antisense; 2'-MOE modified, pattern not given here) [HPRT-665 MOE]”, the “TLR8 100 nM” value is reported as 1.320 and the “TLR8 500 nM” value is reported as 1.639.

In the case of “CAAGGCCCTTCGCACTTCTT (antisense; 2'-MOE modified, pattern not given here) [EGFR-1225 MOE]”, the “TLR8 100 nM” value is reported as 1.115 and the “TLR8 500 nM” value is reported as 1.236.

“CAATGTGATGGCCTCCCATC (antisense; 2'-MOE modified, pattern not given here) [HPRT-335 MOE]” was tested, and the “TLR8 100 nM” value was 1.518 and the “TLR8 500 nM” value was 1.677.

With “CACCCACTTGGCAGACCATC (antisense; 2'-MOE modified, pattern not given here) [CTNN2B-1576 MOE]” the “TLR8 100 nM” value was 1.440 and the “TLR8 500 nM” value was 1.502.

“CAGATAGCACCTTCAGCACT (antisense; 2'-MOE modified, pattern not given here) [CTNN2B-1294 MOE]” was tested, and the “TLR8 100 nM” value was 1.773 and the “TLR8 500 nM” value was 2.356.

With “CCAACACTTCGTGGGGTCCT (antisense; 2'-MOE modified, pattern not given here) [HPRT-666 MOE]” the “TLR8 100 nM” value was 1.223 and the “TLR8 500 nM” value was 1.185.

For “CGTGTCTGGAAGCTTCCTTT (antisense; 2'-MOE modified, pattern not given here) [CTNN2B-808 MOE]”, the “TLR8 100 nM” value was 1.476 and the “TLR8 500 nM” value was 1.222.

“CTCTTGAAGCATCGTATCAC (antisense; 2'-MOE modified, pattern not given here) [CTNN2B-3648 MOE]” was tested, and the “TLR8 100 nM” value was 1.650 and the “TLR8 500 nM” value was 2.200.

“CTGTGATCTTGACATGCTGC (antisense; 2'-MOE modified, pattern not given here) [EGFR-2790 MOE]” was tested, and the “TLR8 100 nM” value was 1.308 and the “TLR8 500 nM” value was 1.387.

“CTTACTTTCCGAGGTGTCCA (antisense; 2'-MOE modified, pattern not given here) [CAMSAP1-1739 MOE]” was tested, and the “TLR8 100 nM” value was 3.892 and the “TLR8 500 nM” value was 4.827.

“GAACCACGTCTGCTCTAACA (antisense; 2'-MOE modified, pattern not given here) [CAMSAP1-1635 MOE]” was tested, and the “TLR8 100 nM” value was 2.787 and the “TLR8 500 nM” value was 3.827.

In the case of “GAGGTCTTGGCTTCGTGGAG (antisense; 2'-MOE modified, pattern not given here) [MB21D1-523 MOE]”, the “TLR8 100 nM” value is reported as 1.822 and the “TLR8 500 nM” value is reported as 2.164.

With “GAGTCTCTGGAGCTTCCTCT (antisense; 2'-MOE modified, pattern not given here) [CAMSAP1-2456 MOE]” the “TLR8 100 nM” value was 0.849 and the “TLR8 500 nM” value was 0.683.

For “GATGCTCCTCGGTCTCCCTT (antisense; 2'-MOE modified, pattern not given here) [CAMSAP1-1850 MOE]”, the “TLR8 100 nM” value was 1.392 and the “TLR8 500 nM” value was 1.954.

For “GATGGCCTCCCATCTCCTTC (antisense; 2'-MOE modified, pattern not given here) [HPRT-329 MOE]”, the “TLR8 100 nM” value was 0.979 and the “TLR8 500 nM” value was 1.698.

In the case of “GCCGCTTTTCTGTCTGGTTC (antisense; 2'-MOE modified, pattern not given here) [CTNN2B-311 MOE]”, the “TLR8 100 nM” value is reported as 0.968 and the “TLR8 500 nM” value is reported as 0.369.

In the case of “GCGACTATACGCGCAATATG (antisense; 2'-MOE modified, pattern not given here) [NC5 2′MOE]”, the “TLR8 100 nM” value is reported as 1.067 and the “TLR8 500 nM” value is reported as 0.883.

“GCGGAGGTCTTGGCTTCGTG (antisense; 2'-MOE modified, pattern not given here) [MB21D1-526 MOE]” was tested, and the “TLR8 100 nM” value was 1.598 and the “TLR8 500 nM” value was 2.226.

In the case of “GCGTATTATAGCCGATTAAC (antisense; 2'-MOE modified, pattern not given here) [NC1 2′MOE]”, the “TLR8 100 nM” value is reported as 1.883 and the “TLR8 500 nM” value is reported as 2.777.

With “GCGTGTCTGGAAGCTTCCTT (antisense; 2'-MOE modified, pattern not given here) [CTNN2B-809 MOE]” the “TLR8 100 nM” value was 1.179 and the “TLR8 500 nM” value was 0.494.

“GCTTCAGGCGCTGCCTTGCC (antisense; 2'-MOE modified, pattern not given here) [CAMSAP1-2709 MOE]” was tested, and the “TLR8 100 nM” value was 0.985 and the “TLR8 500 nM” value was 0.620.

In the case of “GGAGATTTCAGAGCAGCTTC (antisense; 2'-MOE modified, pattern not given here) [EGFR-4885 MOE]”, the “TLR8 100 nM” value is reported as 3.122 and the “TLR8 500 nM” value is reported as 4.308.

For “GGAGCTTCGAGGCCCCAGGC (MOE modified, pattern not given here) [MB21D1-616 MOE]”, the “TLR8 100 nM” value was 0.760 and the “TLR8 500 nM” value was 0.380.

With “GGAGGTCTTGGCTTCGTGGA (antisense; 2'-MOE modified, pattern not given here) [MB21D1-524 MOE]” the “TLR8 100 nM” value was 3.976 and the “TLR8 500 nM” value was 5.288.

In the case of “GGCATCCACCACGTCGTCCA (antisense; 2'-MOE modified, pattern not given here) [EGFR-3266 MOE]”, the “TLR8 100 nM” value is reported as 1.619 and the “TLR8 500 nM” value is reported as 1.566.

“GGGAAAGGTTATGCAAGGTC (antisense; 2'-MOE modified, pattern not given here) [CTNN2B-916 MOE]” was tested, and the “TLR8 100 nM” value was 3.117 and the “TLR8 500 nM” value was 3.500.

“GGTCCATACCCAAGGCATCC (antisense; 2'-MOE modified, pattern not given here) [CTNN2B-2446 MOE]” was tested, and the “TLR8 100 nM” value was 1.901 and the “TLR8 500 nM” value was 2.107.

With “GGTGGTCCACAACCCCTTTC (antisense; 2'-MOE modified, pattern not given here) [MB21D1-697 MOE]” the “TLR8 100 nM” value was 2.121 and the “TLR8 500 nM” value was 3.700.

In the case of “GGTGGTGGCCACCCATCTCA (antisense; 2'-MOE modified, pattern not given here) [CTNN2B-2479 MOE]”, the “TLR8 100 nM” value is reported as 1.491 and the “TLR8 500 nM” value is reported as 0.874.

In the case of “GGTGTCCTTGCACGTGGCTT (antisense; 2'-MOE modified, pattern not given here) [EGFR-1016 MOE]”, the “TLR8 100 nM” value is reported as 1.532 and the “TLR8 500 nM” value is reported as 1.019.

“GTCCACATCCTGTGGCTCGT (antisense; 2'-MOE modified, pattern not given here) [CAMSAP1-2906 MOE]” was tested, and the “TLR8 100 nM” value was 0.919 and the “TLR8 500 nM” value was 0.493.
